The results in this text go back to patent publication US11505523B2, “HDAC8 inhibitors for treating cancer” (City of Hope, priority 2013, dated 2022).

Several values for one entry are separate records, joined by “and”; a condition that tells them apart may be missing. Identical values can stand only once.

One series concerns the target HDAC8 (Homo sapiens (Human), UniProt Q9BY41). In words: Inhibition of HDAC8. In kind it is biochemical. The conditions noted are these: for IC50 PCI34051/IC50 compound: inhibition of HDAC8, relative potency (Tables 1-3); for A (relative potency to PCI34051): inhibition of HDAC8, footnote: (Tables 11-13); for IC50: mean SD of three determinations; for HDAC8 inhibitory activity compared with PCI34051: result in words.

The subject of another series is HeLa nuclear HDACs. In words: Inhibition of HeLa nuclear HDACs (HeLa nuclear extract, mainly HDACs1-3). The series is classed as biochemical. The conditions noted are these: read-out: HeLa HDAC IC50.
In series [1] the test system is MV4-11 cells. Kind of series: Survival/apoptosis of MV4-11 AML cells by Annexin V labeling. The series is classed as cell-based, human. The conditions noted are these: Homo sapiens, read-out: MV4-11 Apoptosis IC50.
In series [2] the test system is MOLM13 cells. In words: Survival/apoptosis of MOLM13 AML cells by Annexin V labeling. The series is classed as cell-based, human. The conditions noted are these: Homo sapiens, read-out: MOLM13 Apoptosis IC50.
A further series concerns OCI-AML3 cells. In words: Survival/apoptosis of OCI-AML3 AML cells by Annexin V labeling. The conditions noted are these: Homo sapiens, OCI-AML-3, 48 h, read-out: OCI-AML3 Apoptosis IC50. In kind it is cell-based, human.
The subject of series [3] is MV4-11 cells. Kind of series: Proliferation of MV4-11 cells, luminescent cell viability assay. In kind it is cell-based, human. The conditions noted are these: Homo sapiens, read-out: MV4-11 Proliferation IC50.
Series [4] concerns MOLM13 cells. Kind of series: Proliferation of MOLM13 cells, luminescent cell viability assay. The series is classed as cell-based, human. The conditions noted are these: Homo sapiens, read-out: MOLM13 Proliferation IC50.
Another series has as its target HDAC1 (Homo sapiens (Human), UniProt Q13547). Kind of series: Inhibition of purified HDAC1. The conditions noted are these: class I; read-out: HDAC 1 IC50. The series is classed as biochemical.
The target of another series is HDAC2 (Homo sapiens (Human), UniProt Q92769). Kind of series: Inhibition of purified HDAC2. The conditions noted are these: read-out: HDAC 2 IC50; class I.
Sequence of HDAC2 (Q92769 whole entry, species assumed): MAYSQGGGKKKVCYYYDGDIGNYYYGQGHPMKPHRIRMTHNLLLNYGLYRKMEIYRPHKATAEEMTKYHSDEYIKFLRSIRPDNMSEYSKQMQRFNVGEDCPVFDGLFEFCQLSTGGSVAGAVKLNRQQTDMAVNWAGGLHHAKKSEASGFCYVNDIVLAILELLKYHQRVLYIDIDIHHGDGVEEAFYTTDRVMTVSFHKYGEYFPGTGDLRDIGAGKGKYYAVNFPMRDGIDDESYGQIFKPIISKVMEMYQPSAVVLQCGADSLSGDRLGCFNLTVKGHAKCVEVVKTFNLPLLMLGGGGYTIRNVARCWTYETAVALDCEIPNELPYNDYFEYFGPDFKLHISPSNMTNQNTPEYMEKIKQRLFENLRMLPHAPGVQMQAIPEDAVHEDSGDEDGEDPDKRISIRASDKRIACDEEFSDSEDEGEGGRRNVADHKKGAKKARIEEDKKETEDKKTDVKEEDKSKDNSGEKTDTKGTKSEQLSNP
The target of another series is HDAC3 (Homo sapiens (Human), UniProt O15379). In words: Inhibition of purified HDAC3. The conditions noted are these: read-out: HDAC 3 IC50; class I.
The target in another series is HDAC4 (Homo sapiens (Human), UniProt P56524). Kind of series: Inhibition of purified HDAC4. The conditions noted are these: read-out: HDAC 4 IC50; class II.
Sequence of HDAC4 (P56524 whole entry, species assumed): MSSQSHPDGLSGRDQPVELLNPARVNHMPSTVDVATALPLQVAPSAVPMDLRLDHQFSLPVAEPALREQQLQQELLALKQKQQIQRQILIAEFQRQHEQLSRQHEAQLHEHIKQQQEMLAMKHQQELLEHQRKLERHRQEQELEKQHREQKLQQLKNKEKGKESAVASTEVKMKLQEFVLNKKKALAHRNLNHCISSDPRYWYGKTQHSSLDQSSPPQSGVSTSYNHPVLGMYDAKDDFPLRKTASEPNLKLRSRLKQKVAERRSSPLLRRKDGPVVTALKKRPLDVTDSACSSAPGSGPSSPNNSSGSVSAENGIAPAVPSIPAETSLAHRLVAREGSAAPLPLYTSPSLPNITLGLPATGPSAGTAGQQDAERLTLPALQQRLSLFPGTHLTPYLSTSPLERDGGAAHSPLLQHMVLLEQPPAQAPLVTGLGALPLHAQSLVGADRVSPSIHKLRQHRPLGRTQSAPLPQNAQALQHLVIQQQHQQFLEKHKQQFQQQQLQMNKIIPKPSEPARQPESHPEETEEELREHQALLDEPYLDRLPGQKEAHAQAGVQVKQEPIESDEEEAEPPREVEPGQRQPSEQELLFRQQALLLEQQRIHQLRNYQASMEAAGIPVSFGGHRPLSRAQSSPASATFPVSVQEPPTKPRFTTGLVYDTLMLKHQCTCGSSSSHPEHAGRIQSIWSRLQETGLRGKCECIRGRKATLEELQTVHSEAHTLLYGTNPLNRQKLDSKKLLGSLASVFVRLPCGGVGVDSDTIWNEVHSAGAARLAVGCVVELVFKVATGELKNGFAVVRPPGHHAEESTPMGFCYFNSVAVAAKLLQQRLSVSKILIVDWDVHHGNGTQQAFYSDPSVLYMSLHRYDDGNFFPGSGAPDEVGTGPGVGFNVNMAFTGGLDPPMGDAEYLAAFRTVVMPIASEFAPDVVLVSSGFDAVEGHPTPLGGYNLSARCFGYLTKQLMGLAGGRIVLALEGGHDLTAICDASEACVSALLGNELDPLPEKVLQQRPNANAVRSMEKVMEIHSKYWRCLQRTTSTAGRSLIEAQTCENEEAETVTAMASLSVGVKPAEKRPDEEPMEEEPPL
The next series deals with HDAC6 (Homo sapiens (Human), UniProt Q9UBN7). In words: Inhibition of purified HDAC6. The conditions noted are these: read-out: HDAC 6 IC50; class II.
Sequence of HDAC6 (Q9UBN7 whole entry, species assumed): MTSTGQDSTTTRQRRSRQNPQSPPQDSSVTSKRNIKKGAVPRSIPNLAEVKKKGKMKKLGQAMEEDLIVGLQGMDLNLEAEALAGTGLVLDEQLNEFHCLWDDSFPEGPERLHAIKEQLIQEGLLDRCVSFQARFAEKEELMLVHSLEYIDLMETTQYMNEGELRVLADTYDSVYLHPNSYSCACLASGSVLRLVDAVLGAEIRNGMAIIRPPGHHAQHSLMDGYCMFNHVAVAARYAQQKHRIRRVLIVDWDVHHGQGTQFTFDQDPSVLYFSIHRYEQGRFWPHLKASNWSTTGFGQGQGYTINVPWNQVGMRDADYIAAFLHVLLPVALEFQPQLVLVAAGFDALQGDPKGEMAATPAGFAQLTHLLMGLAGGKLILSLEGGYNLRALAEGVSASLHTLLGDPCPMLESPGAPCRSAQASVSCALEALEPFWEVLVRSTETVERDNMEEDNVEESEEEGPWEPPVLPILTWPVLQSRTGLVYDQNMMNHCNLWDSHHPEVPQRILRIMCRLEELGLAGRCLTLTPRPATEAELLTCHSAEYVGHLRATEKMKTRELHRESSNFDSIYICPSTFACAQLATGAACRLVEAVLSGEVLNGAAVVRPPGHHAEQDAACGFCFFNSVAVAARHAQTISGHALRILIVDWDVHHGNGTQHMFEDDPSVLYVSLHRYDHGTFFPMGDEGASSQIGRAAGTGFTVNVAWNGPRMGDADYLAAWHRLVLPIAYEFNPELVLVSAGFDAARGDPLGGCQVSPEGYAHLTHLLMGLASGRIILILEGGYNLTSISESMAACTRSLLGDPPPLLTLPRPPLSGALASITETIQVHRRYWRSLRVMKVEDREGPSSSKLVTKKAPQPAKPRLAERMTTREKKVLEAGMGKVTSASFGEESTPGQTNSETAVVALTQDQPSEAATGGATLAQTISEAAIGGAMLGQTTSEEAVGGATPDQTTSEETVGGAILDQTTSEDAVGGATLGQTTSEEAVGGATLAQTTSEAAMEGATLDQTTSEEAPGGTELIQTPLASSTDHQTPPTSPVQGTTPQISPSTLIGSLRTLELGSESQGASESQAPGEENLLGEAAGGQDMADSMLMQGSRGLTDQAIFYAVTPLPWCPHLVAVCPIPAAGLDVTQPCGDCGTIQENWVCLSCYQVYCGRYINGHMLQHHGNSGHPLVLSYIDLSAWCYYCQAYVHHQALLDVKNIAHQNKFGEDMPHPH
For the next series, the target named is HDAC10 (Homo sapiens (Human), UniProt Q969S8). Kind of series: Inhibition of purified HDAC10. The conditions noted are these: read-out: HDAC 10 IC50; class II.
Sequence of HDAC10 (Q969S8 whole entry, species assumed): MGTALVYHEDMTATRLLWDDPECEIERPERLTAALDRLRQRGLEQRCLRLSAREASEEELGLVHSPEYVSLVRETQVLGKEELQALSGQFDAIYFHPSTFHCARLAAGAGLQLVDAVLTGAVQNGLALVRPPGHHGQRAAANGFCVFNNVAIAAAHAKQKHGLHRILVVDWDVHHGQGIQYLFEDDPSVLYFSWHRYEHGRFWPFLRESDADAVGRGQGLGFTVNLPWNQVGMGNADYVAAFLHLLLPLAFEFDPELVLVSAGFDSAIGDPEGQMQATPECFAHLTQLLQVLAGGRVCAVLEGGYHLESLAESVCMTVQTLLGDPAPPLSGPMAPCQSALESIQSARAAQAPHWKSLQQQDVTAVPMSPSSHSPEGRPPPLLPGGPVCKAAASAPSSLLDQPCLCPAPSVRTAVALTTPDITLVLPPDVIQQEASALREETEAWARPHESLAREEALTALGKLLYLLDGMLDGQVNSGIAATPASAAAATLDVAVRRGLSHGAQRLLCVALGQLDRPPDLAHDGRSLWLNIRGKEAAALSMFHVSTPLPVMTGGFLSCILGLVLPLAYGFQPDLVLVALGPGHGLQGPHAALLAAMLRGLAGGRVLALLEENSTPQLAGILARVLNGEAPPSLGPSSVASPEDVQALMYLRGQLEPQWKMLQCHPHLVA
A further series addresses HDAC11 (Homo sapiens (Human), UniProt Q96DB2). Kind of series: Inhibition of purified HDAC11. The conditions noted are these: read-out: HDAC 11 IC50; class IV.
A further series concerns H1299 cells. Kind of series: Cytotoxicity / anti-proliferative activity in H1299 lung cancer cells. The conditions noted are these: read-out: Cytotoxicity IC50 H1299; mean SD of three determinations.
A further series deals with Cl1-1 cells. In words: Cytotoxicity / anti-proliferative activity in CL1-1 lung cancer cells. The conditions noted are these: read-out: Cytotoxicity IC50 Cl1-1; mean SD of three determinations.
The test system of a further series is CL1-5 cells. Kind of series: Cytotoxicity / anti-proliferative activity in CL1-5 lung cancer cells. The conditions noted are these: read-out: Cytotoxicity IC50 Cl1-5; mean SD of three determinations.
Series [5] deals with Ac-p53 (K379) in 32D-CM cells. In words: Western blot of Ac-p53 in CBFβ-SMMHC (CM)-expressing 32D cells. In kind it is cell-based. An excerpt: Cells were lysed in RIPA buffer containing protease inhibitor cocktail (Roche) and MG132. Antibodies used for IP were conjugated with protein A/G beads using the antibody cross-linking kit (Pierce Biotechnology, Rockford, Ill.) following manufacturer's protocol. For Western blot, proteins were resolved in 10% SDS-PAGE. The antibodies used induced anti-FLAG (Sigma), anti-HDAC8, anti-CBFβ (Santa Cruz), anti-p53 (DO-1), anti-Ac-p53 (K379) (Cell Signaling), anti-p53 (Cell signaling) and anti-β-actin (Sigma). Horseradish peroxidase-conjugated anti-rabbit or anti-mouse secondary antibodies (Jackson ImmunoResearch, West Grove Pa.) were used, followed by detection using the SuperFemto kit (Pierce Biotechnology, Rockford, Ill.).
Class 1 HDACs, including HDAC1, HDAC2, and HDAC3, reportedly could inhibit p53 activity by deacetylating p53 [41-43]. […] To test this, we used lentivirus (pLKO. 1) mediated expression of 2 independent small-hairpin (sh)-RNA sequences against Hdac8 to specifically knock-down Hdac8 in 32D-CM cells. Cells were exposed to IR (3Gy) and analyzed for levels of p53 acetylation 6 h after.
A general note: A western blot detects proteins with antibodies after separation by electrophoresis.

Series [6] deals with p53 target genes in 32D-CM cells. In words: qRT-PCR of p53 target genes in 32D-CM cells. The series is classed as cell-based. The conditions noted are these: 10 μM, 16 h. (In general: In qPCR the cycle at which signal appears reflects the starting amount.)

Sequence of HDAC8 (Q9BY41 whole entry): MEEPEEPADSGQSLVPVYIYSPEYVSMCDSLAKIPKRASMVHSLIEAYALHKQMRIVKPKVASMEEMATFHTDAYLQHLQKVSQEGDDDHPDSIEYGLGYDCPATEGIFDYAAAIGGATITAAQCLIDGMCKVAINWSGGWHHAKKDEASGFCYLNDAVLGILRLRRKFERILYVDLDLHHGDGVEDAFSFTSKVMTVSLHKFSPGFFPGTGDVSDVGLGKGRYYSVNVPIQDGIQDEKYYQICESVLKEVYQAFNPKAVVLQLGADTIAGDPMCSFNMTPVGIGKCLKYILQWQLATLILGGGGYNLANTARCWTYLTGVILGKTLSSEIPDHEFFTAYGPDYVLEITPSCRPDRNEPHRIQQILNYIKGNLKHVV
Sequence of HDAC11 (Q96DB2 whole entry, species assumed): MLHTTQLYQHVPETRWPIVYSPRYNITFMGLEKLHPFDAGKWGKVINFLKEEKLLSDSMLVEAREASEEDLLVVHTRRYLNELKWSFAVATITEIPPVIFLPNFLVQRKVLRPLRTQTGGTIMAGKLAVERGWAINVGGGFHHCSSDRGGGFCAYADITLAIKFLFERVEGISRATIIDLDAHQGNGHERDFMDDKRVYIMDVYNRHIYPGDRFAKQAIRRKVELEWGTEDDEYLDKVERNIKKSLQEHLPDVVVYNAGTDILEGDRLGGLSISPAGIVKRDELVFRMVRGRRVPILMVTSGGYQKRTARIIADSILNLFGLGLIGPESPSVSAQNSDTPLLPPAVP
Sequence of HDAC1 (Q13547 whole entry, species assumed): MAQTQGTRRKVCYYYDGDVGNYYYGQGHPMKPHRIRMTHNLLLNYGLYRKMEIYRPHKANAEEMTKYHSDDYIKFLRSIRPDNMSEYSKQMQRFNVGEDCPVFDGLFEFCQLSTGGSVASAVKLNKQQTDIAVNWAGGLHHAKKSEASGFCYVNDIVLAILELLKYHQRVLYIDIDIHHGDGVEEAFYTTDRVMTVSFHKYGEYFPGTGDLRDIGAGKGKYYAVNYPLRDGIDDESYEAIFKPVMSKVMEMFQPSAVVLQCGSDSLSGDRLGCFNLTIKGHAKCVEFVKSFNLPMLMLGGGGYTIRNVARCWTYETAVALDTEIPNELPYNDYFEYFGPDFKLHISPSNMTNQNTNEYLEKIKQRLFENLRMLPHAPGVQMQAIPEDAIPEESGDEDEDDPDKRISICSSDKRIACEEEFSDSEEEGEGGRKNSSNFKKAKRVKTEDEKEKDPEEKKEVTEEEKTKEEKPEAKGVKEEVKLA

Consider `COc1ccc(/C=C/C(=O)NO)c(-c2cccs2)c1` [Compound 5b], for which the “IC50 PCI34051/IC50 compound” value at HDAC8 was found to be 1.43. Also, the “A (relative potency to PCI34051)” value on HDAC8 is recorded as 1.43. The IC50 in the series with HeLa nuclear HDACs was above 10 µM; in the series with MV4-11 cells [1] (MV4-11, 48 h) it was 0.524 µM; in the series on MOLM13 cells [2] (MOLM-13, 48 h), 0.345 µM; with OCI-AML3 cells, 2.35 µM; in the series on MV4-11 cells [3] (MV4-11, 48 h), 0.0825 µM; with MOLM13 cells [4] (MOLM-13, 48 h) it was 0.0533 µM.
Consider `COc1ccc(/C=C/C(=O)NO)c(-c2ccc3c(c2)OCO3)c1` [Compound 5e], for which, on HDAC8, the “IC50 PCI34051/IC50 compound” value came out at 1.86. For the same compound, at HDAC8, the “A (relative potency to PCI34051)” value is 1.86. Further, the IC50 is 8.55 ± 0.00012 µM in the series with HeLa nuclear HDACs; 11.9 µM in the series with MV4-11 cells [1] (MV4-11, 48 h); 11.7 µM in the series with MOLM13 cells [2] (MOLM-13, 48 h); 12.5 µM with OCI-AML3 cells; 7.49 µM with MV4-11 cells [3] (MV4-11, 48 h); 3.36 µM in the series on MOLM13 cells [4] (MOLM-13, 48 h).
Take `COc1ccc(/C=C/C(=O)NO)c(-c2cnc3ccccc3c2)c1` [Compound 5h]: the “IC50 PCI34051/IC50 compound” value on HDAC8 turned out to be 0.63. Besides, the “A (relative potency to PCI34051)” value on HDAC8 worked out at 0.63. Moreover, the IC50 in the series with HeLa nuclear HDACs is 0.836 ± 0.0091 µM; with MV4-11 cells [1] (MV4-11, 48-hr, Annexin V labeling) it was around 22700 µM; with MOLM13 cells [2] (MOLM-13, 48-hr, Annexin V labeling), 90.9 µM; in the series on MV4-11 cells [3] (MV4-11, 48-hr, luminescent cell viability assay), 16.6 µM; in the series on MOLM13 cells [4] (MOLM-13, 48-hr, luminescent cell viability assay), 7.17 µM.
For `COc1ccc(OC(C)COc2cc(OC)ccc2/C=C/C(=O)NO)cc1` (stereo not shown) [Compound 18b, (E)-N-Hydroxy-2-(2-(4-methoxyphenoxyoxy)propoxy)-4-methoxycinnamide], the IC50 against HDAC8 is 0.191 ± 0.0022 µM; in the series with HeLa nuclear HDACs it was above 10 µM.
`CCCC(COc1cc(OC)ccc1/C=C/C(=O)NO)Oc1ccc(OC)cc1` (stereo not shown) [Compound 18d, (E)-N-Hydroxy-2-(2-(4-methoxyphenoxyoxy)pentyloxy)-4-methoxycinnamide]: the IC50 was 0.2 ± 0.0065 µM against HDAC8 and above 10 µM in the series with HeLa nuclear HDACs.
Consider `COc1cc(Nc2ncccc2/C=C/C(=O)NO)cc(OC)c1OC` [Compound 21], for which, on HDAC8, the “IC50 PCI34051/IC50 compound” value is on record as 0.68 and the “A (relative potency to PCI34051)” value came out at 0.68. Moreover, in the series on HeLa nuclear HDACs, the IC50 was above 10 µM.
As to `COc1ccc(/C=C/C(=O)NO)c(-c2ccccc2)c1` [Compound 22a, (E)-N-Hydroxy-4-methoxy-2-phenylcinnamide], the IC50 against HDAC8 is 0.072 µM and 0.0724 µM; in the series with HeLa nuclear HDACs it was above 10 µM.
On to `COc1ccc(/C=C/C(=O)NO)c(-c2ccc(Br)cc2)c1` [Compound 22b, (E)-N-Hydroxy-4-methoxy-2-(4-bromophenyl)cinnamide], for which the “fold more potent than 22a (HDAC8)” value at HDAC8 stood at 13 fold. Besides, at HDAC8, the “fold more potent than PCI34051 for HDAC8” value is listed as “around ten”. The IC50 against HDAC8 was 0.0057 ± 0.0001 µM; in the series on HeLa nuclear HDACs, above 10 µM; at HDAC1, 0.0045 ± 0.0001 µM; on HDAC2, above 0.02 µM; at HDAC3, 0.0048 ± 0.0005 µM; on HDAC4 it was above 0.02 µM. Further, the IC50 was above 0.02 µM at HDAC6; above 0.02 µM on HDAC10; above 0.02 µM at HDAC11; above 0.01 µM with H1299 cells; above 0.01 µM in the series on Cl1-1 cells; above 0.01 µM in the series on CL1-5 cells. Also, the “HDAC8 inhibitory activity compared with PCI34051” value on HDAC8 was “superior to PCI34051”.
For the compound `COc1ccc(/C=C/C(=O)NO)c(-c2cccc3ccccc23)c1` [Compound 22c, (E)-N-Hydroxy-4-methoxy-2-(naphthalen-1-yl)cinnamide], the IC50 against HDAC8 is 0.078 ± 0.0043 µM; with HeLa nuclear HDACs, above 10 µM.
Consider `COc1ccc(/C=C/C(=O)NO)c(-c2ccc(Oc3ccccc3)cc2)c1` [Compound 22e, (E)-N-Hydroxy-4-methoxy-2-(4-phenoxyphenyl)cinnamide], for which the “fold less potent than 22a (HDAC8)” value at HDAC8 is on record as “three”. The IC50 is 0.174 ± 0.0059 µM on HDAC8 and above 10 µM with HeLa nuclear HDACs.
`COc1ccc(/C=C/C(=O)NO)c(-c2ccc(C(=O)c3ccccc3)cc2)c1` [Compound 22f, (E)-N-Hydroxy-4-methoxy-2-(4-benzoylphenyl)cinnamide]: the IC50 at HDAC8 was 0.0418 ± 0.0033 µM; in the series on HeLa nuclear HDACs, above 10 µM; in the series with H1299 cells, 0.0084 ± 0.0002 µM; in the series on Cl1-1 cells it was above 0.01 µM; in the series with CL1-5 cells, above 0.01 µM. The “HDAC8 inhibitory activity compared with PCI34051” value on HDAC8 was “superior to PCI34051”.
With `COc1ccc(/C=C/C(=O)NO)c(-c2cccc3c2oc2ccccc23)c1` [Compound 22g, (E)-N-Hydroxy-4-methoxy-2-(dibenzofuran-4-yl)cinnamide], the IC50 is 0.0477 ± 0.0007 µM on HDAC8; above 10 µM with HeLa nuclear HDACs; 0.0066 ± 0.0007 µM in the series on H1299 cells; 0.0085 ± 0.0012 µM in the series on Cl1-1 cells; 0.0087 ± 0.0001 µM in the series on CL1-5 cells. In addition, the “HDAC8 inhibitory activity compared with PCI34051” value on HDAC8 is “superior to PCI34051”.
Turning to `COc1ccc(/C=C/C(=O)NO)c(Oc2cc(OC)c(OC)c(OC)c2)c1` [Compound 25], on HDAC8, the “IC50 PCI34051/IC50 compound” value stood at 0.49 and the “A (relative potency to PCI34051)” value is 0.49. In the series with HeLa nuclear HDACs, the IC50 was above 10 µM.
With `CCCOc1ccc(/C=C/C(=O)NO)c(-c2ccccc2)c1` [Compound 27a, (E)-N-Hydroxy-4-propoxy-2-phenylcinnamide], the values for the IC50 against HDAC8 and with HeLa nuclear HDACs were 0.133 ± 0.0126 µM and above 10 µM, respectively.
As to `CCCCOc1ccc(/C=C/C(=O)NO)c(-c2ccccc2)c1` [Compound 27b, (E)-N-Hydroxy-4-butoxy-2-phenylcinnamide], the IC50 is 0.289 ± 0.0301 µM at HDAC8 and above 10 µM in the series on HeLa nuclear HDACs.
In the same order, the values of `CCCCCOc1ccc(/C=C/C(=O)NO)c(-c2ccccc2)c1` [Compound 27c, (E)-N-Hydroxy-4-pentoxy-2-phenylcinnamide] are 0.186 ± 0.0598 µM and above 10 µM.
For `O=C(/C=C/c1ccc(-c2ccccc2)cc1-c1ccccc1)NO` [Compound 27d, (E)-N-Hydroxy-2,4-diphenylcinnamide], the IC50 on HDAC8 was 0.1749 ± 0.0002 µM; in the series with HeLa nuclear HDACs, above 10 µM.
With `COc1ccc(Cn2ccc3ccc(C(=O)NO)cc32)cc1` [PCI34051, reference compound], the IC50 with HeLa nuclear HDACs was above 10 µM; with H1299 cells it was above 0.01 µM; in the series on Cl1-1 cells, above 0.01 µM; in the series on CL1-5 cells, above 0.01 µM. In addition, the “Ac-p53 level in CM-expressing cells” value in [5] (Western blot, 6 h) is “remarkably increased Ac-p53”. For the same compound, in series [5] (compared to Nutlin-3 alone), the “Ac-p53 level, in combination with Nutlin-3” value was “enhanced Ac-p53 compared to Nutlin-3 alone”. Further, the “activation of p53 targets (Bax, Puma, p21, Gadd45b and LincRNA-p21)” value in series [6] was “Variable levels of activation”.
